In brackets after ≈: the same amount, converted by molar mass.
Tests used:
[1] = Aqueous solubility in 0.1 M phosphate buffer pH 7.4; type: physicochemical; conditions: for solubility at 24 h: 21 °C, aqueous buffer, thermodynamic from solid, 0.1 M phosphate buffer, pH 7.4, 20 to 22° C., read-out: aq. Solubility
Experimental: Duplicate of 1-2 mg of the test compound are incubated in 0.1 M phosphate buffer, pH 7.4, in 2 mL glass-vials on a plate bed shaker (IKA®-Schüttler MTS-4, IKA Labortechnik) at 300 rpm at a temperature of 20 to 22° C. for 24 hours. Non-dissolved material is centrifugated down from the saturated solution at 3000 rpm for 2×15 minutes at 22° C. (Multifuge® 3 S-R, Heraeus). The aqueous supernatant is transferred to glass-vials and aliquotes used for quantitative analysis using reversed HPLC with MS confirmation of compound identity. Quantification is performed by the UV-trace of the chromatogram against a calibration curve, 0-200 μM, of the test compound dissolved in DMSO at the wavelength of a positive inflection point of the UV spectrum. The reported values (aq. solubility) are the mean values of duplicate HPLC-analysis of two independent incubations.

[2] = Metabolic stability in pooled human liver microsomes; type: in vitro ADME; conditions: for h.mic. FH (fraction escaping hepatic clearance): 1 μM compound, 0.5 mg microsomal protein/mL, 37° C., calculated from halflife, fu=1; for human microsomal metabolic stability (h.mic. FH) compared to the unsubstituted analog (Z=H): incubated with human microsomes
Experimental: The compounds were incubated (at 1 μM) with characterized, pooled human liver microsomes (0.5 mg microsomal protein/mL incubation) at 37° C. in phosphate buffer (50 mM potassium phosphate, pH 7.4) The incubations were started by the addition of a cofactor (1 mM NADPH (Nicotinamide adenine dinucleotide phosphate in reduced form) and terminated by the addition of acetonitrile (1:1). The incubations were analyzed by LC/MS and a time curve for the disappearance of the parent compound was constructed. Control incubations without microsomes, or with acetonitrile addition before the addition of the cofactor, were used to check for non-enzymatic degradation/disappearance. […] The fraction escaping hepatic clearance, FH, given in %, was calculated from the hepatic clearance according to the following equation: [formula] Thus, the higher the FH, the more metabolically stable the compound. Solubility

[3] = biological target: T1, human mGluR5d (Homo sapiens, UniProt P41594); assay: FLIPR analysis of [Ca2+]i mobilization, antagonist activity; type: cell-based; conditions: cells expressing human mGluR5d, read-out: IC50 mGluR5
T1 construct: expressed in transfected cells; GHEK cells stably expressing the receptor are named only for the IP3 assay
T1 sequence (P41594 21-942 isoform P41594-3 limits assumed): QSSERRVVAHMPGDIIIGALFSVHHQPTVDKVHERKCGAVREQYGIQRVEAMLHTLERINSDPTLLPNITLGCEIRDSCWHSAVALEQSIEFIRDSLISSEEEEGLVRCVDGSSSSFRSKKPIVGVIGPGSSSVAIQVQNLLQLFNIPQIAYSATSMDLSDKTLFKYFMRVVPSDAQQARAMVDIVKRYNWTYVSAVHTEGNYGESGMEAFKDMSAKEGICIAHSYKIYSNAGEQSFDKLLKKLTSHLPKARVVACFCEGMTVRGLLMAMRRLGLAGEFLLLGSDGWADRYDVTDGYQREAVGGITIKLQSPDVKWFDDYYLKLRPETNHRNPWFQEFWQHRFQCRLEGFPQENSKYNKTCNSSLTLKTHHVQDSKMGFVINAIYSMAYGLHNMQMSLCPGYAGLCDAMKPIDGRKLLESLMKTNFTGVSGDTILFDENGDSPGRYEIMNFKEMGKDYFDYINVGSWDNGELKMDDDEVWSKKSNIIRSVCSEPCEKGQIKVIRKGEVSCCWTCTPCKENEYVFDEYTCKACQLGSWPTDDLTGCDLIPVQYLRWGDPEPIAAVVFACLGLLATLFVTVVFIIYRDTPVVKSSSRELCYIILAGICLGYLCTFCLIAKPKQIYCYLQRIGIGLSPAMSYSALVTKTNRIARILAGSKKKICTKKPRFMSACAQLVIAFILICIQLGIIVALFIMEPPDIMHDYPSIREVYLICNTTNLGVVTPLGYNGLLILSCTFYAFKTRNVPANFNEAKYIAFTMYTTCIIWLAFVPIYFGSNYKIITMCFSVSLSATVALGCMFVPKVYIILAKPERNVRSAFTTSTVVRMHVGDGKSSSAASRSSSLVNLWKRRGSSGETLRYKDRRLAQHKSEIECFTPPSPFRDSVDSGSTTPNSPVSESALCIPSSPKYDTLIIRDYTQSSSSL

solubility at 24 h [1]	increase in solubility compared to the corresponding bromo derivative (Z=Br) ([1]; aq. solubility)	h.mic. FH (fraction escaping hepatic clearance) [2]	IC50 [3]	Structure (SMILES)	human microsomal metabolic stability (h.mic. FH) compared to the unsubstituted analog (Z=H) [2]
4.3 µM (≈ 1.22 µg/mL)	22 fold	71%	–	N#Cc1cc(F)cc(-n2nnc(-c3ccc(F)cn3)n2)c1 [3-Fluoro-5-[5-(5-fluoropyridin-2-yl)-2H-tetrazol-2-yl]benzonitrile]	significantly more stable
0.2 µM (≈ 0.069 µg/mL)	–	92%	–	N#Cc1cc(F)cc(-n2nnc(-c3ccc(Br)cn3)n2)c1 [3-[5-(5-bromopyridin-2-yl)-2H-tetrazol-2-yl]-5-fluorobenzonitrile]	significantly higher human metabolic stability
43 µM (≈ 11.4 µg/mL)	–	10%	0.012 µM	N#Cc1cc(F)cc(-n2nnc(-c3ccccn3)n2)c1 [3-fluoro-5-(5-pyridin-2-yl-2H-tetrazol-2-yl)benzonitrile]	–

From patent US20070255061A1, “5-Fluoro-, Chloro-and Cyano-Pyridin-2-Yl-Tetrazoles as Ligands of the Metabotropic Glutamate Receptor-5” (AstraZeneca AB, priority 2003, published 2007)
